Source: patent US20250213474A1, “COMPOSITIONS AND METHODS FOR METAL CONTAINING FORMULATIONS CAPABLE OF MODULATING IMMUNE RESPONSE” (The Regents of the University of Michigan, priority 2021, published 2025)

How the values were obtained:
B16F10 cells = test: B16F10 tumor model, CMP versus other STING-activating formulations; type: in vivo, C57BL/6 mice
Method: FIGS. 23A-P: Robust therapeutic effect of CMPCDA in multiple tumor models. (FIGS. 23A-23J) Therapeutic effect of CMPCDA was compared with other CDA formulations and other STING agonists in an established B16F10 tumor model. (FIGS. 23A-23E) Tumor-bearing C57BL/6 mice were treated with CMPCDA, CDA-Zn particle (CZPCDA), CDA liposome), ADU-S100, or diABZI (all 5 μg doses of STING agonists, I.T.) on the indicated time points (FIG. 23A). Shown are (FIG. 23B) the individual tumor growth, (FIG. 23C) representative photos of tumors, (FIG. 23D) average tumor growth and (FIG. 23E) survival. […] Data were analyzed by two-way ANOVA (FIG. 23D, FIG. 23I, FIG. 23P) with Bonferroni multiple comparisons post-test. Survival of (FIG. 23E, FIG. 23J, FIG. 23P) was analyzed by Kaplan-Meier survival analysis with log-rank (Mantel-Cox) test. *p and #p in (FIG. 23P) denote statistical significance relative to the untreated and CDA groups, respectively.
All animals were cared for following federal, state, and local guidelines. […] Tumor size and survival were monitored every 2-4 days. Tumor size was calculated based on equation: volume=length×width^2×0.5. […] At indicated time points, the cytokine levels in serum were measured by ELISA assay in the Cancer Center Immunology Core of the University of Michigan. The amount of tumor antigen-specific T cells among PBMC were analyzed using the IFN-γ ELISPOT assay. […]

[1] = system: VX2 squamous cell carcinoma; test: Rabbit VX2 squamous cell carcinoma model; type: in vivo, New Zealand White rabbits; details: IV on W0 and W1; CMP-14:0 PA 0.5 mg, diABZi 1.5 mg; versus non-treated rabbits
Method: FIGS. 32A-E: CMP-14:0 PA exerts robust efficacy in rabbit VX2 squamous cell carcinoma model. (FIG. 32A) VX2 tumor tissues were cut into pieces and implanted within the muscle of the both hindlimbs on W-3.5. Rabbits were treated IV with 0.5 mg CMP-14:0 PA or 1.5 mg diABZi on W0 and W1. Shown are (FIG. 32B) total weight of primary tumors dissected from the muscle of the hindlimbs. (FIG. 32C) total volume of the primary tumor dissected from the muscle of the hindlimbs. (FIG. 32D) Measured tumor area ratio based on H&E staining slides of lung sections. (FIG. 32E) Representative images of the lungs.
New Zealand White rabbits were used for this study. All rabbits were housed individually in cages under constant 21° C. temperature and 12-h light/dark cycles. All animals were cared for following federal, state, and local guidelines. All animal experimental procedures performed were in accordance with and approved by the Institutional Animal Care & Use Committee (IACUC) at the University of Michigan, Ann Arbor and complied with the National Institutes of Health (NIH) Guidelines for the care and use of laboratory animals. For establishing VX2 squamous cell carcinoma in rabbits, 4 mm^3 fresh tumor tissues were cut into small pieces and resuspended in 1 mL PBS for intramuscular injections within the hindlimbs. Both hindlimbs were implanted with the tumor tissue suspension. […]

[2] = Safety of CMP-14:0 PA in VX2 tumor bearing rabbits (body weight, AST, ALT); type: in vivo, New Zealand White rabbits; details: 1.5 mg IV on W0 and W1
Method: FIGS. 31A-31C: CMP-14:0 PA is safe in rabbits. (FIG. 31A) VX2 tumor tissues were cut into pieces and implanted within the muscle of the both hindlimbs on W-3.5. […] (FIG. 31B) Serum was collected on W2 for measurement of AST and ALT levels as indicators of liver function. (FIG. 31C) Body weight changes in VX2 tumor bearing rabbits were monitored over the two cycles of treatment.
New Zealand White rabbits were used for this study. All rabbits were housed individually in cages under constant 21° C. temperature and 12-h light/dark cycles. All animals were cared for following federal, state, and local guidelines. All animal experimental procedures performed were in accordance with and approved by the Institutional Animal Care & Use Committee (IACUC) at the University of Michigan, Ann Arbor and complied with the National Institutes of Health (NIH) Guidelines for the care and use of laboratory animals. For establishing VX2 squamous cell carcinoma in rabbits, 4 mm^3 fresh tumor tissues were cut into small pieces and resuspended in 1 mL PBS for intramuscular injections within the hindlimbs. Both hindlimbs were implanted with the tumor tissue suspension. […] In the antitumor efficacy study, two doses of CMP-14:0 PA and diABZi were given with one week interval and the rabbits were euthanized 1 week after the last dose for primary tumors and lung metastasis analysis. […]

diABZI
anti-tumor effect after I.T. therapy (B16F10 cells; 5 μg doses of STING agonists, I.T.): comparable anti-tumor responses
anti-tumor effect after I.V. therapy (B16F10 cells; 20 μg doses, I.V.): only minor anti-tumor effects
weight and volume of primary tumors in the hindlimbs [1]: did not decrease the weight or volume of primary tumors
rabbits with elevated level of AST and ALT [2]: 1 out of 3
